In the OPERA property sets (Mansouri et al. 2018) one finds logP data, which are given here for 14 compounds.

What is called logP is a log measure of how a compound divides between an organic and an aqueous phase. A high value points to a more lipophilic compound.

On to `CC(=O)OCCNc1ccc(-c2ccncc2)cn1`, for which the logP was 2. The compound `Cc1nc(NCCN)c(C#N)cc1-c1ccncc1` had a logP of 1.91. The value for `O=C(OCCCNc1ccc(-c2ccncc2)cn1)c1ccccc1` was 4.06; that for `CCOc1ncc(-c2ccncc2)cc1C#N` was 2.59. Then `CCC(=O)OCCNc1ccc(-c2ccncc2)cn1`, with 2.47.

`CC(=O)OCCOc1ccc(-c2ccncc2)cn1` displayed a lipophilicity (logP) of 1.92. Take `Cc1nc(N2CCNCC2)c(C#N)cc1-c1ccccc1`: the logP worked out at 3.15. Consider `N#Cc1cc(-c2ccncc2)cnc1NCCCCO`, for which the logP stood at 1.93. Take `COc1nc(C)c(-c2ccncc2)cc1C#N`: the logP came out at 2.41. Then `CCC(CO)Nc1ncc(-c2ccncc2)cc1C#N` (centres undefined), with 1.04; and `CC(O)COc1ncc(-c2ccncc2)cc1C#N` (centres undefined), with 1.65. `CC(=O)OCCNc1ccc(-c2ccncc2)c(C)n1` returned a logP of 2.59.

In turn, `CC(=O)OCCCOc1ccc(-c2ccncc2)cn1` showed a log partition coefficient (logP) of 2.48. `COCCCNc1ncc(-c2ccncc2)cc1C#N`: the log partition coefficient (logP) was found to be 2.03.
